From patent US11325899B2, “Benzofurane and benzothiophene derivatives as PGE2 receptor modulators” (IDORSIA PHARMACEUTICALS LTD, priority 2017, dated 2022)

Experiments:
[1] = biological target: T1, PTGER2 (EP2) (Homo sapiens, UniProt P43116); experiment: hEP2 b-arrestin assay (PathHunter HEK 293 PTGER2 b-arrestin cells); format: cell-based; details: antagonistic activity, beta-arrestin assay; read-out: hEP2 b-arr IC50
T1 construct: host or cells: HEK 293 (PathHunter PTGER2 b-arrestin cell line)
T1 sequence (P43116 whole entry): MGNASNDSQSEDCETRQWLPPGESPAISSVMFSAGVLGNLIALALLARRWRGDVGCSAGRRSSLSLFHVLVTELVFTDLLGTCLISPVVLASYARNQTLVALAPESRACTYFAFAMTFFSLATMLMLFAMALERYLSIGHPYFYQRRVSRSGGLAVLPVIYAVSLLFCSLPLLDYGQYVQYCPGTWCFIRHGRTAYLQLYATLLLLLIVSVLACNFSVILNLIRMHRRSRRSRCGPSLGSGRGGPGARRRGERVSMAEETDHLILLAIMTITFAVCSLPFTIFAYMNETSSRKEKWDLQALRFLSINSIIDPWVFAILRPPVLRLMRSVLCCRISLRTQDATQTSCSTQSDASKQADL
Procedure, shortened: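 Antagonism measured as inhibition of PGE2-driven β-arrestin 2 recruitment (enzyme fragment complementation, luminescence) in engineered HEK293 EP2 cells. Agonist: 5 μM PGE2, ~EC80, 120 min at 37 °C after 15 min compound preincubation; test range 10 μM-2 nM or 1 μM-0.2 nM, duplicates, IC50 fitted.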

[2] = biological target: T2, EP2 receptor (Homo sapiens, UniProt P43116); experiment: hEP2 cAMP assay (SF295 glioblastoma cells, HTRF cAMP, PGE2 stimulation); format: cell-based; details: antagonistic activity
T2 construct: SF295 glioblastoma cells express high endogenous EP2 and no EP4; host or cells: SF295 glioblastoma cells
T2 sequence (P43116 whole entry): as above
Procedure, shortened: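 HTRF cAMP readout gave % cAMP relative to DMSO, fitted to IC50 with duplicate points. Compounds were preincubated 45 min at room temperature with EP2-expressing, EP4-negative SF295 cells in IBMX (2 mM)-containing buffer before a 30 min challenge with PGE2 at 75 nM final, its EC80.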

IC50 [1] [nM] | IC50 [2] [nM] | SMILES
58 | 32 | Cc1sc2c(C)cc(F)cc2c1CCNc1cc(-c2ccc(C(=O)O)c(O)c2)ncn1 [Example 10, 4-{6-[2-(5-Fluoro-2,7-dimethyl-benzo[b]thiophen-3-yl)-ethylamino]-pyrimidin-4-yl}-2-hydroxy-benzoic acid]
61 | 27 | CCc1nc(-c2cc(NCCc3c(C)sc4c(C)cc(F)cc34)ncn2)sc1C(=O)O [Example 161, 4-Ethyl-2-{6-[2-(5-fluoro-2,7-dimethyl-benzo[b]thiophen-3-yl)-ethylamino]-pyrimidin-4-yl}-thiazole-5-carboxylic acid]
36 | 48 | CCOc1cc(-c2cc(NCCc3c(C#N)sc4c(C)cc(F)cc34)ncn2)ccc1CC(=O)O [Example 104, (4-{6-[2-(2-Cyano-5-fluoro-7-methyl-benzo[b]thiophen-3-yl)-ethylamino]-pyrimidin-4-yl}-2-ethoxy-phenyl)-acetic acid]
